The subject of data set [1] is cytochrome P450 (CYP) enzymes. Kind of data set: Metabolism by CYP enzymes. Type of data set: in vitro ADME.
Data set [2] is described as follows: Excretion after single IV infusion of radiolabeled pafolacianine sodium. It is filed as in vivo. The following applies: after approximately 3-5 weeks.
The test system of data set [3] is FR-positive KB cell tumor xenografts. The data set is described as follows: Whole body imaging and tissue distribution, FR-positive KB tumor xenografts. Type of data set: in vivo, mice. The following applies: compared with pafolacianine. How it is done:
Whole body imaging and tissue distribution of pafolacianine and OTL0039 was performed in female nu/nu mice bearing FR-positive KB cell tumor xenografts. […] This observation was consistent with the lower binding affinity of the D-isomer for FR compared with the L-isomer. Tumor fluorescence was brighter in mice receiving pafolacianine compared with other folate-conjugated near infrared dyes such as LS288, IR800 and ZW800.
The optimal dose range for pafolacianine with respect to tumor-to-background ratio in FR-positive tumor-bearing mice was 1 to 30 nmol/mouse, with lower fluorescence intensity observed in tumors at a lower dose (0.3 nmol) and higher fluorescence intensity observed in other tissues at doses above 30 nmol. In a second experiment, pafolacianine whole body imaging and tissue distribution was examined again; however, this experiment was performed in female nu/nu mice bearing FR-negative A549 cell tumor xenografts.

Turning to `CC1(C)C(/C=C/C2=C(Oc3ccc(C[C@H](NC(=O)c4ccc(NCc5cnc6nc(N)[nH]c(=O)c6n5)cc4)C(=O)[O-])cc3)C(=C/C=C3/N(CCCCS(=O)(=O)[O-])c4ccc(S(=O)(=O)[O-])cc4C3(C)C)/CCC2)=[N+](CCCCS(=O)(=O)[O-])c2ccc(S(=O)(=O)[O-])cc21.O.[Na+].[Na+].[Na+].[Na+]` [pafolacianine sodium, (S)-2-(4-(((2-amino-4-oxo-3,4-dihydropteridin-6-yl)methyl)amino)benzamido)-3-(4-(((E)-2-((E)-2-(3,3-dimethyl-5-sulfonato-1-(4-sulfonatobutyl)-3H-indol-1-ium-2-yl)vinyl)-6-((E)-2-(3,3-dimethyl-5-sulfonato-1-(4-sulfonatobutyl)indolin-2-ylidene)ethylidene)cyclohex-1-en-1-1)oxy)phenyl)propanoate hydrate tetrasodium], the “metabolism by cytochrome P450 (CYP) enzymes” value in data set [1] is “not metabolized”. In addition, in data set [2], the “dose recovered in feces” value is 15.8%; the “dose recovered in urine” value came to 19.1%; the “dose recovered in urine and feces” value was “approximately 35%”.

Consider `CC1(C)C(=CC=C2CCCC(C=CC3=[N+](CCCCS(=O)(=O)[O-])c4ccc(S(=O)(=O)O)cc4C3(C)C)=C2Oc2ccc(C[C@@H](NC(=O)c3ccc(NCc4cnc5nc(N)[nH]c(=O)c5n4)cc3)C(=O)O)cc2)N(CCCCS(=O)(=O)O)c2ccc(S(=O)(=O)O)cc21` [OTL0039, reference compound], for which the “fluorescence signal intensity in tumors and kidneys” value in data set [3] is on record as “weaker fluorescence signal intensity than pafolacianine”.

The values above are taken from patent US11986540B2, “Compositions including pafolacianine for the identification of malignant lesions” (ON TARGET LABORATORIES, LLC., priority 2022, dated 2024).
